From ChEMBL document CHEMBL1795309, “Thiophenyl oxime-derived phosphonates as nano-molar class C beta-lactamase inhibitors reducing MIC of imipenem against Pseudomonas aeruginosa and Acinetobacter baumannii” (Bioorg Med Chem Lett, 2011) come the findings set out here.

The target in data set [1] is Beta-lactamase (Pseudomonas aeruginosa (strain ATCC 15692 / PAO1 / 1C / PRS 101 / LMG12228), UniProt P24735). Briefly: Inhibition of Pseudomonas aeruginosa beta lactamase AmpC.
The target of data set [2] is Beta-lactamase SHV-5 (Klebsiella pneumoniae, UniProt P0A3M1). Briefly: Inhibition of Klebsiella pneumoniae beta lactamase SHV-5.
Chain of Beta-lactamase SHV-5 (P0A3M1 whole entry): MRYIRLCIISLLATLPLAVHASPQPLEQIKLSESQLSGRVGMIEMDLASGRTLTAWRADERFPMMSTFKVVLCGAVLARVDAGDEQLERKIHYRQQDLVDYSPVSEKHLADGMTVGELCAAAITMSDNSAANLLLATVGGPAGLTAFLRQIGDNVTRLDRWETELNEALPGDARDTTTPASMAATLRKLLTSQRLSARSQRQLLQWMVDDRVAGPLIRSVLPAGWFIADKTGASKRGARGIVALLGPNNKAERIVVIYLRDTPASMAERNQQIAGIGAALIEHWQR
The target of data set [3] is Beta-lactamase (Acinetobacter baumannii, UniProt Q8RLA6). Briefly: Inhibition of Acinetobacter baumannii beta lactamase OXA-40.
Chain of Beta-lactamase (Acinetobacter baumannii, UniProt Q8RLA6) (Q8RLA6 whole entry): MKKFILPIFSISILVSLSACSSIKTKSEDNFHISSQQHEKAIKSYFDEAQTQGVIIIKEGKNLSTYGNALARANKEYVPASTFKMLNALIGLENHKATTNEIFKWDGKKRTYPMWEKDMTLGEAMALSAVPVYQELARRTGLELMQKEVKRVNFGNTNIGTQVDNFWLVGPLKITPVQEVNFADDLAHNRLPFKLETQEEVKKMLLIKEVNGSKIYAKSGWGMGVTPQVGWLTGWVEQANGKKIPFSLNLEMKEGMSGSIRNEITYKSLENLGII
The target of data set [4] is Beta-lactamase (Enterobacter cloacae, UniProt P05364). Briefly: Inhibition of Enterobacter cloacae beta lactamase P99.
Chain of Beta-lactamase (Enterobacter cloacae, UniProt P05364) (P05364 whole entry): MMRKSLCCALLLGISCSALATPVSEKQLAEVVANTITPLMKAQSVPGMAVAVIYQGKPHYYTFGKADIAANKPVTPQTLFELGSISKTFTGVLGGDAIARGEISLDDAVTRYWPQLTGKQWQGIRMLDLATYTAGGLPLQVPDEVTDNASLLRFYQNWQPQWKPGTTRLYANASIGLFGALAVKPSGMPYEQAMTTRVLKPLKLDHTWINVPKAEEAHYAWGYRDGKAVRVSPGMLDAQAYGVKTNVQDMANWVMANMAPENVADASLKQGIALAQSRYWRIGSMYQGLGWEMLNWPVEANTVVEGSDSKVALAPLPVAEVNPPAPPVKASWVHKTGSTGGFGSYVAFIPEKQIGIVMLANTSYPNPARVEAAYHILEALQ
Data set [5] in a line: Inhibition of Pseudomonas aeruginosa beta lactamase TEM-1.
The nature of data set [6]: Volume of distribution in mouse at 2.5 mg/kg, iv. It counts as ADME, organism-based. Further details: dose 2.5 mg/kg, route intravenous. The settings on record: in vivo.
The nature of data set [7]: Half life in mouse at 2.5 mg/kg, iv. It counts as ADME, organism-based. Details: dose 2.5 mg/kg, route intravenous. The settings on record: in vivo.
Data set [8] deals with Acinetobacter baumannii. Briefly: Antimicrobial activity against imipenem-resistant Acinetobacter baumannii CL6188 at 100 uM. In kind it is functional, organism-based.
Data set [9] concerns Pseudomonas aeruginosa. Briefly: Antimicrobial activity against imipenem-resistant Pseudomonas aeruginosa expressing beta lactamase AmpC assessed as reduction in imipenim MIC up to 100 uM. In kind it is functional, organism-based.
A short description of data set [10]: Clearance in mouse at 2.5 mg/kg, iv. In kind it is ADME, organism-based. The settings on record: in vivo. Further details: dose 2.5 mg/kg, route intravenous.
The subject of data set [11] is Acinetobacter baumannii. Briefly: Antimicrobial activity against imipenem-resistant Acinetobacter baumannii CL6188 assessed as reduction in imipenim MIC. It counts as functional, organism-based.
Data set [12] has as its system Pseudomonas aeruginosa. Briefly: Antimicrobial activity against imipenem-resistant Pseudomonas aeruginosa expressing beta lactamase AmpC up to 100 uM. In kind it is functional, organism-based.
The subject of data set [13] is Mus musculus. Briefly: Dose normalized AUC in mouse at 2.5 mg/kg, iv. In kind it is ADME, organism-based. Further details: dose 2.5 mg/kg, route intravenous. The settings on record: in vivo.
The test system of data set [14] is Pseudomonas aeruginosa. The data set can be described thus: Antimicrobial activity against imipenem-resistant Pseudomonas aeruginosa expressing beta lactamase AmpC assessed as reduction in imipenim MIC. In kind it is functional, organism-based.

Activity calls are given as the source filed them. The calls are words filed in the database; no cut-off is given here.

Chain of Beta-lactamase (Pseudomonas aeruginosa (strain ATCC 15692 / PAO1 / 1C / PRS 101 / LMG12228), UniProt P24735) (P24735 whole entry): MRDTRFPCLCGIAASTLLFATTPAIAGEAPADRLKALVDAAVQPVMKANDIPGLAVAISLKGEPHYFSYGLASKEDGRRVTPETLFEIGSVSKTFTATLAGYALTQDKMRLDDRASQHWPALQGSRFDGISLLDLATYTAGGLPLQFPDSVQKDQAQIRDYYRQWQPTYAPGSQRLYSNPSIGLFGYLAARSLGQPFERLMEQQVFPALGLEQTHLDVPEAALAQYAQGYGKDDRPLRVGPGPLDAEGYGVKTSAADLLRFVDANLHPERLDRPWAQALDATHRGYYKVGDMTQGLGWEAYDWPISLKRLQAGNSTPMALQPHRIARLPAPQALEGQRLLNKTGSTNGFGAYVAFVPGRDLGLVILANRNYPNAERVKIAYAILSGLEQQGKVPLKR

In the case of `CO/N=C(\C(=O)NCP(=O)(O)O)c1cccs1`, the IC50 in data set [1] was 6.5 µM; in [2], over 50 µM; in data set [3], over 50 µM; in data set [4], 21 µM; in [5] it was over 50 µM.
As for `CO/N=C(\C(=O)NCP(=O)(O)Oc1ccc(C#N)c(F)c1)c1cnc(NC(=O)C(Cl)(Cl)Cl)s1` (stereo in doubt; 2b), the half-inhibitory concentration (IC50) in data set [1] was 3 µM; in [2] it was 15 µM; in [3], over 12.5 µM; in data set [4] it was 0.71 µM.
Take `CO/N=C(/C(=O)NCP(=O)(O)O)c1cccs1`: the IC50 in data set [1] is 3.2 µM; in data set [2], over 50 µM; in [3], over 50 µM; in data set [4] it was 3 µM; in data set [5] it was over 50 µM.
Turning to `N#Cc1ccc(OP(=O)([O-])CNC(=O)/C(=N\OCCC[n+]2ccccc2)c2cccs2)cc1F` (stereo in doubt; 6b), the IC50 in data set [1] is 0.087 µM; in data set [2], over 50 µM; in [3], over 50 µM; in data set [4] it was 0.17 µM; in [5], over 50 µM.
Regarding `CON=C(C(=O)NCP(=O)(O)Oc1ccc(C#N)c(F)c1)c1cccs1`, the concentration for half-maximal inhibition (IC50) was 0.0096 µM in data set [1]; over 50 µM in data set [2]; over 50 µM in [3]; 0.039 µM in [4]; over 50 µM in [5].
Molecule `CO/N=C(/C(=O)NCP(=O)(O)Oc1ccc(C#N)c(F)c1)c1cccs1` came in with a distribution volume (Vd) in data set [6] of 1 L/kg. In addition, the IC50 was 0.0075 µM in [1]; 22 µM in [2]; 17 µM in data set [3]; 0.032 µM in data set [4]; 28 µM in data set [5]. The half-life in data set [7] was 32.4 min. Besides, the result in data set [8] and in data set [12] was inactive. Also, the result in data set [9] and in data set [11] was Active. This molecule gave a clearance in [10] of 43 mL/min/kg. For the same molecule, the AUC/dose in data set [13] amounted to 0.98 µM/h/kg/mg. Also, in data set [14], the Activity result was “Dose-dependent effect”.
For the molecule `CO/N=C(\C(=O)NCP(=O)(O)Oc1ccc(C#N)c(F)c1)c1cccs1`, the concentration for half-maximal inhibition (IC50) was 0.046 µM in [1]; over 12.5 µM in data set [2]; 26 µM in data set [3]; 0.1 µM in data set [4]; over 50 µM in data set [5].
Take `N#Cc1ccc(OP(=O)(O)CNC(=O)C(=NO)c2cccs2)cc1F`: the IC50 came out at 0.2 µM in data set [1]; 27 µM in [2]; 21 µM in data set [3]; 0.1 µM in data set [4]; 23 µM in [5].
The like results for `CO/N=C(\C(=O)NCP(=O)(O)Oc1ccc(C#N)c(F)c1)c1cnc(N)s1` were, in that order, 1.5 µM, over 50 µM, over 50 µM, 0.8 µM and over 50 µM.
Take `CO/N=C(\C(=O)NCP(=O)(O)Oc1ccc(C#N)c(F)c1)c1cnc(NC(=O)C(Cl)(Cl)Cl)s1` (stereo in doubt; 2a): the IC50 in data set [1] was 3 µM; in [2] it was 25 µM; in [3], over 12.5 µM; in data set [4] it was 0.34 µM; in data set [5], over 50 µM.
Regarding `CO/N=C(/C(=O)NCP(=O)(O)Oc1ccc(C#N)c(F)c1)c1ccc(Cl)s1`, the IC50 amounted to 0.005 µM in data set [1], 31 µM in [3], 0.019 µM in data set [4] and 16 µM in data set [5]. Also, the result in data set [8], in data set [11] and in [12] was inactive. Also, the outcome in data set [9] was Active. Besides, the Activity result in data set [14] was “Dose-dependent effect”.
Regarding `N#Cc1ccc(OP(=O)([O-])CNC(=O)/C(=N\OCCC[n+]2ccccc2)c2cccs2)cc1F` (stereo in doubt; 6a), the IC50 was 0.021 µM in data set [1]; over 50 µM in [2]; 27 µM in data set [3]; 0.087 µM in data set [4]; 17 µM in data set [5].
